By inhibition is commonly meant the share of the control response that was lost under treatment. As a reminder, the EC50 is the concentration at which the effect is half-maximal.

The values that follow come from EP0348170A2, “Antiviral pyrimidine derivatives” (Lee, Moses Nam Fong, priority 1988, dated 1989).

In brackets after ≈: the same amount, converted by molar mass.

One data set deals with Vero cells. As to the kind of experiment: Effect on the replication of Vero cells. Conditions: for inhibition at 100 µg/mL: Conc. 100 ug/ml. Type of data set: cell-based. As for the experimental part:
A second experiment shown in Table II herebelow was conducted to show the effects of various compounds on replication of Vero cells. […] This is indicative of much lower toxicity than AZT, (Compound No. 1) which inhibit a much higher percentage of these cells at a given concentration. TABLE II [table]

Another data set relates to HIV. As to the kind of experiment: Antiviral assay: inhibition of the killing of HIV-infected T4 lymphocytes (CEM cell line), XTT formazan readout. Type of data set: cell-based. The conditions noted are these: for therapeutic index (IC50 divided by EC50): in cell culture; for EC50: Human immunodeficiency virus 1, CCRF-CEM, read-out: EC50, Inhibition of the killing of HIV-infected T4-lymphocytes. Here is the method: The procedure used in the test for agents active against (HIV) is designed to detect agents acting at any stage of the virus reproductive cycle. The assay basically involves the killing of T4 lymphocytes by HIV. Small amounts of HIV are added to cells, and at least two complete cycles of virus reproduction are necessary to obtain the required cell killing. Agents which interact with virions, cells, or virus gene-products to interfere with viral activities will protect cells from cytolysis. The system is automated in several features to accommodate large numbers of candidate agents, and is generally designed to detect anti-HIV activity. However, compounds which degenerate or are rapidly metabolized in the culture conditions may not show activity in this screen. Also, while every attempt has been made to reduce variability, precise values for EC₅₀, IC₅₀, and Therapeautic Index are not possible. All tests are compared with a positive (AZT-treated) control done at the same time under identical conditions.
• 1. T4 lymphocytes (CEM cell line) are exposed to HIV at a virus to cell ratio approximately 0.05, and plated along with noninfected control cells in 96-well microtiter plates. • 2. The candidate agent is dissolved in dimethyl sulfoxide (unless otherwise instructed), then diluted 1:200 in cell culture medium. Further dilutions (half-log₁₀) are prepared before adding to an equal volume of medium containing either infected or noninfected cells. • 3. Cultures are incubated at 37 °C in a 5% carbon dioxide atmosphere for 6 or 7 days. • 4. The tetrazolium salt, XTT, is added to all wells, and cultures are incubated to allow formazan color development by viable cells. • 5. Individual wells are analyzed spectrophotometrically to quantitate formazan production, and in addition are viewed microscopically for detection of viable cells and confirmation of protective activity. • 6. Drug-treated virus-infected cells are compared with drug-treated noninfected cells and with other appropriate controls (untreated infected and untreated noninfected cells, drug-containing wells without cells, etc.) on the same plate. • 7. Data are reviewed in comparison with other tests done at the same time, and a determination about activity is made.
(In general: Tetrazolium dyes change colour on reduction, which living cells bring about.)

Take `Cc1cn([C@H]2C[C@H](N=[N+]=[N-])[C@@H](CO)O2)c(=O)[nH]c1=O` [AZT, 3′-azido-3′-deoxythymidine, reference compound]: the inhibition at 10 µg/mL with Vero cells (Chlorocebus sabaeus, Vero, Conc. 10 ug/ml) was 21%. Further, the inhibition at 100 µg/mL in the data set on Vero cells (Chlorocebus sabaeus, Vero) is 86%. Also, the “therapeutic index (IC50 divided by EC50)” value in the data set with HIV is “about 100”.
For the molecule `Cc1cn([C@H]2C=C(n3ccnn3)[C@@H](CO)O2)c(=O)[nH]c1=O` [Compound 2, 1-[2′,3′-Didehydro-2′,3′-dideoxy-3′-(1˝-1˝,2˝,3˝-triazolo)ribofuranosyl]thymine], the concentration for a half-maximal effect (EC50) in the data set on HIV was > 100 mg/L.
On the same count and under the same terms, then `C#CC1=C[C@H](n2cc(C)c(=O)[nH]c2=O)O[C@@H]1CO` [Compound 3, 1-(2′,3′-Didehydro-2′,3′-dideoxy-3′-ethynylribofuranosyl)thymine], with > 100 mg/L; and `Cc1cn([C@H]2C=C(C#N)[C@@H](CO)O2)c(=O)[nH]c1=O` [Compound 4, 1-(3′-Cyano-2˝,3˝-didehydro-2′,3′-dideoxyribofuranosyl)thymine], with > 100 mg/L.
On to `Cc1nnc(S(=O)(=O)C2=C[C@H](n3cc(C)c(=O)[nH]c3=O)O[C@@H]2CO)s1` [Compound 5, 1-[2′,3′-Didehydro-2′,3′-dideoxy-3′-(2˝-sulfono-5˝-methyl-1˝,3˝,4˝-thiadiazolo)ribofuranosyl]thymine], for which, in the data set on Vero cells (Chlorocebus sabaeus, Vero, Conc. 50 ug/ml), at 50 µg/mL the inhibition was 0%. In addition, the inhibition at 75 µg/mL in the data set with Vero cells (Chlorocebus sabaeus, Vero, Conc. 75 ug/ml) amounted to 10%. The inhibition at 100 µg/mL in the data set on Vero cells (Chlorocebus sabaeus, Vero) is 20%. In addition, the “inhibition of Vero cells, in words” value in the data set with Vero cells (fast growing Vero cells) is recorded as “little inhibition”. Besides, in the data set on HIV, the 50% effective concentration (EC50) stood at 4.9 mg/L (≈ 12.7 µM) and the “therapeutic index (IC50 divided by EC50)” value is ~170.
